Source: patent US20190225650A1, “PEPTIDOMIMETIC MACROCYCLES AND USE THEREOF IN REGULATING HIF1ALPHA” (AILERON THERAPEUTICS, INC., priority 2013, published 2019)
Bridge positions count the residues as written; N and C are the ends. Square brackets hold non-standard residues; d marks the D form. Peptide text beside a SMILES is read from it. R8 = C=CCCCCCC[C@@](C)(N)C(=O)O; S5 = C=CCCC[C@](C)(N)C(=O)O; Nle = CCCC[C@H](N)C(=O)O

Assays:
HRE-bla ME-180 cells [1] = experiment: Cell proliferation assay (viability, MTT, 1% FBS); format: cell-based, human
In short: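 Viable cell number was measured with the CellTiter 96 (MTT) kit after compounds were applied for a 16 h normoxic (21% O2) pretreatment, followed by further normoxic or hypoxic (1% O2) culture. Cells: 2×10^4 ME-180 per well, Opti-MEM + 1% FBS, 0.5% DMSO vehicle.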

[2] = target: T1, flag-tagged HIF1α (AA 786-826) / His6-tagged p300 (AA 323-423) complex (Homo sapiens, UniProt Q09472); experiment: HIF1α p300 displacement assay (TR FRET, +CHAPS); format: binding; conditions: read-out: IC50 (nM) (HIF1α_p300 Displacement + CHAPS)
T1 construct: His6-tagged p300 (AA 323-423); made in house; host or cells: E. coli (pETDuet vector)
In short: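 In this TR-FRET displacement format, peptides compete HIF1α C-terminal transactivation domain off p300-CH. They were preincubated 1 h at room temperature with 300 nM complex in HEPES pH 7.4/NaCl buffer with 7.5 mM CHAPS and 1 mM DTT. Anti-His-D2 (4 nM) and anti-Flag-K (0.5 μM) followed for 2 h, and a one-site fit of the fluorescence ratio gave IC50.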

HRE-bla ME-180 cells [3] = experiment: Reporter gene assay (HRE-bla ME-180 HIF reporter, GeneBLAzer); format: cell-based, human; conditions: for EC50: 24 hour normoxia
In short: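 A FRET β-lactamase readout of HIF transcription was used. After compound treatment in 0.3% DMSO/media under normoxic conditions, 20 μl of 6× LiveBLAzer-FRET B/G (CCF4-AM) substrate was added. Plates sat 3 hr at room temperature in the dark and were read at 409 Ex/460Em and 409Ex/530Em on a Synergy 2. Inhibition was compared against DMSO vehicle controls, with chetomin as positive control.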

Row | SMILES | Viability 1% FBS AVG (MTT V3-24 hr Normoxia) (μM) (HRE-bla ME-180 cells [1]) | IC50 [2] [nM] | 18 h Avg % max inhibition at top conc (HIF Rptr-24 hrs normoxia) (μM) (HRE-bla ME-180 cells [3]) | EC50 (HRE-bla ME-180 cells [3]) [µM]
1 | CCCC[C@H](NC(=O)[C@H](CCC(=O)O)NC(=O)[C@]1(C)CCCC=CCCCCCC[C@@](C)(NC(=O)[C@H](CCC(=O)O)NC(=O)[C@H](CC(=O)O)NC(=O)[C@@H](NC(=O)[C@H](CC(N)=O)NC(=O)[C@@H](NC(=O)[C@H](CCC(N)=O)NC(=O)[C@]2(C)CCCC=CCCC[C@](C)(NC(=O)[C@H](CC(C)C)NC(=O)[C@H](CCC(=O)O)NC(=O)[C@H](CCC(=O)O)NC(=O)CNC(=O)[C@H](CCC(N)=O)NC(=O)[C@H](CC(C)C)NC(=O)[C@H](CC(C)C)NC(C)=O)C(=O)N[C@@H](CCCNC(=N)N)C(=O)N[C@@H](C)C(=O)N[C@@H](CC(C)C)C(=O)N2)C(C)C)[C@@H](C)CC)C(=O)N[C@@H](C(C)C)C(=O)N[C@@H](CC(C)C)C(=O)N[C@@H](CCCC)C(=O)N[C@@H](CO)C(=O)N[C@@H](CC(C)C)C(=O)N[C@@H](C(C)C)C(=O)N1)C(=O)NCC(N)=O [SP-312] (Ac-LLQGEEL[S5]RAL[S5]QVNIDE[R8]VL[Nle]SLV[S5]E[Nle]G-NH2; staple 8-12, 19-26) | ++++ (≥30: ++++) | > 700 | ++++ (≥50: ++++) | ≤ 5
2 | CCCC[C@H](NC(=O)[C@H](CCC(=O)O)NC(=O)[C@]1(C)CCCC=CCCCCCC[C@@](C)(NC(=O)[C@H](CCC(=O)O)NC(=O)[C@H](C)NC(=O)[C@@H](NC(=O)[C@H](CC(N)=O)NC(=O)[C@@H](NC(=O)[C@H](CCC(N)=O)NC(=O)[C@]2(C)CCCC=CCCC[C@](C)(NC(=O)[C@H](CC(C)C)NC(=O)[C@H](CCC(=O)O)NC(=O)[C@H](CCC(=O)O)NC(=O)CNC(=O)[C@H](CCC(N)=O)NC(=O)[C@H](CC(C)C)NC(=O)[C@H](CC(C)C)NC(C)=O)C(=O)N[C@@H](CCCNC(=N)N)C(=O)N[C@@H](C)C(=O)N[C@@H](CC(C)C)C(=O)N2)C(C)C)[C@@H](C)CC)C(=O)N[C@@H](C(C)C)C(=O)N[C@@H](CC(C)C)C(=O)N[C@@H](CCCC)C(=O)N[C@@H](CO)C(=O)N[C@@H](CC(C)C)C(=O)N[C@@H](C(C)C)C(=O)N1)C(N)=O [SP-365] (Ac-LLQGEEL[S5]RAL[S5]QVNIAE[R8]VL[Nle]SLV[S5]E[Nle]-NH2; staple 8-12, 19-26) | ++++ (≥30: ++++) | > 700 | +++ (≤25 but <50: +++) | > 30
3 | CC[C@H](C)[C@H](NC(=O)[C@H](CCCNC(=N)N)NC(=O)[C@H](CC(=O)O)NC(=O)[C@H](CC(C)C)NC(=O)[C@H](C)NC(=O)[C@H](CCSC)NC(=O)[C@H](CCC(=O)O)NC(=O)[C@@H](NC(=O)[C@@H](NC(=O)[C@H](CC(C)C)NC(=O)[C@]1(C)CCCC=CCCC[C@](C)(NC(=O)[C@H](CCC(=O)O)NC(=O)[C@H](CC(=O)O)NC(=O)[C@@H](NC(=O)[C@H](Cc2ccccc2)NC(C)=O)[C@@H](C)CC)C(=O)N[C@@H](C(C)C)C(=O)N[C@@H](CC(C)C)C(=O)N[C@@H](CCSC)C(=O)N1)C(C)C)[C@@H](C)CC)C(N)=O [SP-108] (Ac-FIDE[S5]VLM[S5]LVIEMALDRI-NH2; staple 5-9) | ++++ (≥30: ++++) | ≤ 200 | ++ (≤10 but <25: ++) | > 30
4 | CCCC[C@H](NC(=O)[C@H](CCC(=O)O)NC(=O)[C@@H](NC(=O)[C@@H](NC(=O)[C@H](C)NC(=O)[C@]1(C)CCCC=CCCC[C@](C)(NC(=O)[C@H](CCC(=O)O)NC(=O)[C@H](CC(=O)O)NC(=O)[C@@H](NC(=O)[C@H](Cc2ccccc2)NC(C)=O)[C@@H](C)CC)C(=O)N[C@@H](C(C)C)C(=O)N[C@@H](CC(C)C)C(=O)N[C@@H](CCCC)C(=O)N1)C(C)C)[C@@H](C)CC)C(=O)N[C@@H](C)C(=O)N[C@@H](CC(C)C)C(N)=O [SP-142] (Ac-FIDE[S5]VL[Nle][S5]AVIE[Nle]AL-NH2; staple 5-9) | ++++ (≥30: ++++) | 400 to 700 | +++ (≤25 but <50: +++) | > 30
